“Also recorded” adds a separate entry of the source.
T1: myeloperoxidase (Homo sapiens, UniProt P05164)
T1 construct: endogenous in cells; host or cells: HL60 cells (endogenous enzyme, purified in house)
T1 sequence (P05164 49-745): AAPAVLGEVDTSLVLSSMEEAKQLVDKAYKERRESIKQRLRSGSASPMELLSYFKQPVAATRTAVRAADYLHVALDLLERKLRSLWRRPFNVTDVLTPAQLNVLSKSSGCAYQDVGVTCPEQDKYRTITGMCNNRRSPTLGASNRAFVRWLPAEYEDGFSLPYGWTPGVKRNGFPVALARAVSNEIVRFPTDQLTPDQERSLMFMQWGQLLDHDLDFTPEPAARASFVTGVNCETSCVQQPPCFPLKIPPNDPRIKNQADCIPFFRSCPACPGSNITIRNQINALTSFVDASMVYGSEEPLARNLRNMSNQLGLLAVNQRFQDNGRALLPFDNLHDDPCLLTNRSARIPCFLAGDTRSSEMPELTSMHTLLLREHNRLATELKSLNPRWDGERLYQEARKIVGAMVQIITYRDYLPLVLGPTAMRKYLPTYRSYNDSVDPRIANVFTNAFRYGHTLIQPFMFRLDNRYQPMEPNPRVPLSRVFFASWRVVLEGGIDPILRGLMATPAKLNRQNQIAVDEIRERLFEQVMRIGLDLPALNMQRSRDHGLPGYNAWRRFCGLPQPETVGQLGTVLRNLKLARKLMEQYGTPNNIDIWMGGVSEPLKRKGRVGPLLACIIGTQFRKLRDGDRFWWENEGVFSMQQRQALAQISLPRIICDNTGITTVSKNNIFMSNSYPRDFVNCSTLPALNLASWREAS

T2: eosinophil peroxidase (Sus scrofa, UniProt P80550)
T2 construct: purchased ExOxEmis (Little Rock, Ark.)
T2 sequence (P80550 143-704): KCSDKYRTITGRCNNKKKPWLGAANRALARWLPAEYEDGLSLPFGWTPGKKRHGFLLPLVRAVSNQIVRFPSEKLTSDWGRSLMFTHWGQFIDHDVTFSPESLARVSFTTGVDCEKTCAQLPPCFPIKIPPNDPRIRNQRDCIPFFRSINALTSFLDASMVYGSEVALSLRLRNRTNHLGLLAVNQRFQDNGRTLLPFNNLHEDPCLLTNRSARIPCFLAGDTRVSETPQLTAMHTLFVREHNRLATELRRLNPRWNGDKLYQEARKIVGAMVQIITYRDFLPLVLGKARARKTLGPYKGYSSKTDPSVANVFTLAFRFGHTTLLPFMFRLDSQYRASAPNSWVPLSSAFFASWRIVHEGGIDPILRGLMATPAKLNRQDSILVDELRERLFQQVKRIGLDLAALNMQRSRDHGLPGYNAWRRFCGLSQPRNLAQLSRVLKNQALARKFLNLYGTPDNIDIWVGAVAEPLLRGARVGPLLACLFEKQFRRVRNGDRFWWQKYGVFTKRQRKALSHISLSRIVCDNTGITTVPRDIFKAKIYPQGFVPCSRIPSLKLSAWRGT


Key:
[1] = target: T1, myeloperoxidase; assay: Generation of N-acetyl-L-3-bromotyrosine by the myeloperoxidase-H2O2-Cl^−-Br^− system (reverse-phase HPLC); assay type: biochemical; conditions: for effect on bromination of N-acetyl-L-tyrosine by myeloperoxidase: acidic (pH 5.9) and neutral conditions; for effect on bromination by the myeloperoxidase-H2O2-Cl^−-Br^− system: mildly acidic conditions (pH 5.9)
Experimental: (§1) General procedures. Myeloperoxidase was purified from HL60 cells (ref. 19). Enzyme was apparently pure as assessed by its absorption spectrum (A430/A280 ratio>0.8), SDS-PAGE, and peroxidase activity gel electrophoresis (ref. 20). Porcine eosinophil peroxidase (A415/A280>0.9) was from ExOxEmis (Little Rock, Ark.). Chloride-free NaOCl and HOBr were prepared by conventional procedures as described previously (refs. 21,22). Peritoneal white blood cells were elicited with intraperitoneal (i.p.) injection of 4% thioglycollate and harvested 24 h after injection (ref. 23). SDS-PAGE was performed using 10% Bis-Tris NuPAGE gels (Invitrogen; Carlsbad, Calif.). The separated proteins were transferred onto a nitrocellulose membrane, which was blocked overnight at 4° C. with 5% milk and 0.05% Tween-20 in phosphate-buffered saline (PBS; 10 mM phosphate, 138 mM NaCl, 2.7 mM KCl, pH 7.4). The blot was then incubated (1 h) with rabbit anti-mouse myeloperoxidase antibody (1:1,000) followed by goat anti-rabbit immunoglobulin antibody (1:10,000; Santa Cruz Biotechnology; Santa Cruz, Calif.) conjugated with horseradish peroxidase. West Pico chemiluminescent substrate (Pierce; Rockford, Ill.) was added, and the membrane was exposed to autoradiography film and developed.
Reaction conditions. Reactions were carried out for 60 min at 37° C. in buffer A (100 mM NaCl, 50 mM sodium phosphate, 100 μM diethylenetriaminepentaacetic acid (DTPA)) supplemented with 1 mM N-acetyl-L-tyrosine and either 50 μM hypohalous acid or 3 nM peroxidase and 50 μM H2O2. Buffer A was passed over a Chelex resin column prior to use to remove redox active transition metal ions. Reactions were initiated by the addition of oxidant and terminated with 0.1 mM methionine.
(§2) Reverse-phase HPLC analyses of halogenated amino acids. Analyses were performed using a flow rate of 1 mL/min and an Ultrasphere ODS reverse-phase column (4.6 mm×25 cm; 5 μm; Beckman Instruments; Berkeley, Calif.) coupled to a Waters 484 Tunable Absorbance Detector with monitoring at 275 nm. Solvent A was 0.1% trifluoroacetic acid (TFA, pH 2.5), and solvent B was 0.1% TFA in methanol (pH 2.5). The gradient profile was: isocratic elution at 66:34 (v/v) A:B over 2.1 min; linear increase of B from 34% to 40% over 30 min; isocratic elution at 60:40 A:B for 3 min; increase of B from 40% to 100% over 2 min; and isocratic elution at 100% B for 3 min. Products were quantified using integrated peak areas by comparison to standard curves of authentic N-Ac-chlorotyrosine and N-Ac-bromotyrosine.

[2] = target: T2, eosinophil peroxidase; assay: Generation of N-acetyl-L-3-bromotyrosine by the eosinophil peroxidase-H2O2-Cl^−-Br^− system (reverse-phase HPLC); assay type: biochemical, Porcine
Experimental: as §1, with “The blot was then incubated (1 h) with rabbit anti-mouse myeloperoxidase antibody (1:1,000) followed by goat anti-rabbit immunoglobulin antibody (1:10,000; Santa Cruz Biotechnology; Santa Cruz, Calif.) conjugated with horseradish peroxidase. West Pico chemiluminescent substrate (Pierce; Rockford, Ill.) was added, and the membrane was exposed to autoradiography film and developed.” left out
Reverse-phase HPLC analyses of halogenated amino acids. Analyses were performed using a flow rate of 1 mL/min and an Ultrasphere ODS reverse-phase column (4.6 mm×25 cm; 5 μm; Beckman Instruments; Berkeley, Calif.) coupled to a Waters 484 Tunable Absorbance Detector with monitoring at 275 nm. […] Products were quantified using integrated peak areas by comparison to standard curves of authentic N-Ac-chlorotyrosine and N-Ac-bromotyrosine.

[3] = Generation of N-acetyl-L-3-bromotyrosine by the HOCl-Cl^−-Br^− system (reverse-phase HPLC)
Experimental: as §2, with “Reaction conditions. Reactions were carried out for 60 min at 37° C. in buffer A (100 mM NaCl, 50 mM sodium phosphate, 100 μM diethylenetriaminepentaacetic acid (DTPA)) supplemented with 1 mM N-acetyl-L-tyrosine and either 50 μM hypohalous acid or 3 nM peroxidase and 50 μM H2O2. Buffer A was passed over a Chelex resin column prior to use to remove redox active transition metal ions. Reactions were initiated by the addition of oxidant and terminated with 0.1 mM methionine. Reverse-phase” for “Reverse-phase”

[4] = system: Klebsiella pneumoniae; assay: Bacterial killing by myeloperoxidase; assay type: cell-based
Experimental: Bacterial killing. The bactericidal activity of myeloperoxidase was quantified by conventional procedures as described previously (ref. 27). Briefly, Klebsiella pneumoniae were cultured in Luria-Bertani broth to mid-log growth phase, washed with PBS, and used at 10^9 bacteria/mL. Bacteria were incubated with 5 nM enzyme, 5 nM H2O2, and 100 mM NaCl in PBS (pH 5.5) for 15 min at 37° C. Serial dilutions were immediately spread on agar plates and the colony forming units determined after overnight incubation at 37° C.

[5] = neutral conditions (pH 7), taurine 200 μM
[6] = mildly acidic conditions (pH 5.9)

Row | effect on bromination of N-acetyl-L-tyrosine by myeloperoxidase [1] | effect on bromination by the myeloperoxidase-H2O2-Cl^−-Br^− system [1] | effect on bromination by the myeloperoxidase-H2O2-Cl^−-Br^− system ([1]; listed as Taurine) | effect on production of N-acetyl-L-3-bromotyrosine by the eosinophil peroxidase-H2O2-Cl^−-Br^− system [2, 6] | effect on N-acetyl-L-3-bromotyrosine formation by the eosinophil peroxidase-H2O2-Cl^−-Br^− system [2, 5] | Molecule | effect on N-acetyl-L-3-bromotyrosine formation by the myeloperoxidase-H2O2-Cl^−-Br^− system [1, 5] | effect on formation of N-acetyl-L-3-bromotyrosine by the HOCl-Cl^−-Br^− system [3, 6] | effect on formation of N-acetyl-L-3-bromotyrosine by the HOCl-Cl^−-Br^− system [3, 5] | bacteria killing (dead) ([4]; 1 μM Br added to the complete myeloperoxidase-H2O2-Cl^− system) [%] | effect on bacteria killing ([4]; 10 μM Br^− added to the complete myeloperoxidase-H2O2-Cl^− system)
1 | inhibited | almost completely inhibited | inhibited | failed to affect | little affect | NCCS(=O)(=O)O [taurine] | only partially inhibited; also recorded: only partly inhibited | inhibited | completely inhibited |  | 
2 |  |  |  |  |  | Br [Br^−, bromide] |  |  |  | 72 | completely inhibitory
3 | inhibited |  |  |  |  | catalase: a peroxide scavenger (protein, UniProt P04040 2-527, looked up) Catalase: ADSRDPASDQMQHWKEQRAAQKADVLTTGAGNPVGDKLNVITVGPRGPLLVQDVVFTDEMAHFDRERIPERVVHAKGAGAFGYFEVTHDITKYSKAKVFEHIGKKTPIAVRFSTVAGESGSADTVRDPRGFAVKFYTEDGNWDLVGNNTPIFFIRDPILFPSFIHSQKRNPQTHLKDPDMVWDFWSLRPESLHQVSFLFSDRGIPDGHRHMNGYGSHTFKLVNANGEAVYCKFHYKTDQGIKNLSVEDAARLSQEDPDYGIRDLFNAIATGKYPSWTFYIQVMTFNQAETFPFNPFDLTKVWPHKDYPLIPVGKLVLNRNPVNYFAEVEQIAFDPSNMPPGIEASPDKMLQGRLFAYPDTHRHRLGPNYLHIPVNCPYRARVANYQRDGPMCMQDNQGGAPNYYPNSFGAPEQQPSALEHSIQYSGEVRRFNTANDDNVTQVRAFYVNVLNEEQRKRLCENIAGHLKDAQIFIQKKAVKNFTEVHPDYGSHIQALLDKYNAEKPKNAIHTFVQSGSHLAAREKANL |  |  |  |  | 
